Source: ChEMBL document CHEMBL5370593, “Discovery and In Vitro Characterization of SPL028: Deuterated N,N-Dimethyltryptamine” (ACS Med Chem Lett, 2023)

Tests used:
[1] = Ratio of drug concentration in human blood to plasma at 5 uM incubated for 30 mins by LC-MS/MS analysis; assay type: ADME, cell-free; settings: whole blood
[2] = Metabolic stability in human hepatocytes assessed as intrinsic clearance measured per million cells incubated upto 60 mins by LC-MS/MS analysis; assay type: ADME, cell-based, Hepatocyte; settings: read-out: CLH
[3] = Metabolic stability in human hepatocytes assessed as half life measured per million cells incubated upto 60 mins by LC-MS/MS analysis; assay type: ADME, cell-based, Hepatocyte
[4] = Plasma protein binding in human assessed as unbound fraction by rapid equilibrium dialysis analysis; assay type: ADME, cell-free

Row | Structure (SMILES) | blood plasma ratio at 0.5 h, 5 µM [1] | hepatocyte CLint [2] [µL/min/1e6 cells] | half-life [3] [h] | fraction unbound [4]
1 | O=C(O)Cc1ccccc1Nc1c(Cl)cccc1Cl [DICLOFENAC] | 0.63 | – | – | –
2 | CCN(CC)CCCC(C)Nc1ccnc2cc(Cl)ccc12 (configuration not stated) [CHLOROQUINE] | 4.93 | – | – | –
3 | O=C(O)/C=C/C(=O)O.[2H]C([2H])([2H])N(C([2H])([2H])[2H])C([2H])([2H])Cc1c[nH]c2ccccc12 | – | 9.3 | 3.45 | –
4 | CNS(=O)(=O)Cc1ccc2[nH]cc(CCN(C)C)c2c1 | – | – | – | 0.68
5 | O=C(O)/C=C/C(=O)O.[2H]C([2H])([2H])N(CCc1c[nH]c2ccccc12)C([2H])([2H])[2H] | – | 15.2 | 1.95 | –
